These results are taken from article PMC3556010, “A new strategy based on pharmacophore-based virtual screening in adenosine deaminase inhibitors detection and in-vitro study” (DARU Journal of Pharmaceutical Sciences, 2012).

Assay [1] concerns the target T1, Adenosine deaminase (from bovine spleen) (Bos taurus, UniProt P56658).
T1 construct: Adenosine deaminase (from bovine spleen in 3.2 M ammonium sulfate) was purchased from Sigma; purchased Sigma (St. Louis, MO, USA); host or cells: bovine spleen (tissue-derived)
T1 sequence (P56658 1-363): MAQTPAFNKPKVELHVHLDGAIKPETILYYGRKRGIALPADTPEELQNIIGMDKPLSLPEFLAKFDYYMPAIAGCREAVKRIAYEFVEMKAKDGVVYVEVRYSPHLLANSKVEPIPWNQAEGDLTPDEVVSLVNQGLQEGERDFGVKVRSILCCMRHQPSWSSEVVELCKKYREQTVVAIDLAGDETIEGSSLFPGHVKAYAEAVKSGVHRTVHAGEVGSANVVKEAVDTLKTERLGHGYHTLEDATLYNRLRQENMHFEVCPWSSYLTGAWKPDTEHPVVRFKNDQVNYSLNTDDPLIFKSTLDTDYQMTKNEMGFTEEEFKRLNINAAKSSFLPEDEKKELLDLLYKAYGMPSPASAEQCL
Put plainly: ADA enzyme inhibition by UV-vis spectrophotometry (Kaplan method, absorbance at 265 nm). It counts as biochemical. As to conditions: for IC50: pH 7.5, 37°C, phosphate buffer; for Ki: secondary plot of apparent Km versus [I], inhibitor 0–130 μM, substrate 20–124 μM, 37°C, pH 7.5, read-out: Ki (inhibition constant). Here is the method: Adenosine deaminase (from bovine spleen in 3.2 M ammonium sulfate) was purchased from Sigma (St. Louis, MO, USA). Phosphate buffer 50 mM, pH 7.5, was used as media which is comprised NaH2PO4 and Na2HPO4 and are from Merck. In addition, other material such as solvents, were purchased from this company.
All of biological samples were prepared with double distilled water. The adenosine stock solution prepared and was used in concentration range of 0.01-0.4 mM. The concentration of enzyme in the assay mixture 50 mM sodium phosphate buffer, was 0.9 nM with a final volume of 1ml. Enzymatic activities were assayed by UV–vis spectrophotometry (Shimadzu-3100, Japan) based on Kaplan Method to follow the decrease in absorbance at 265 nm resulting from the conversion of adenosine to inosine.
For accurate determination of kinetic parameters, the IC50 values were evaluated, and then the enzyme inhibition was studied in 180 s intervals. […] In a competitive inhibition; Vmax is unaltered, whereas Km is increased. The slope of a competitive plot is equal to:
Slope=KmI/Vmax.Ki+Km/Vmax
All experiments performed in 37°C and phosphate buffer, pH=7.5.

The target of assay [2] is T2, Adenosine deaminase (Bos taurus, UniProt P56658).
T2 construct: Adenosine deaminase (from bovine spleen in 3.2 M ammonium sulfate) was purchased from Sigma; purchased Sigma (St. Louis, MO, USA); host or cells: bovine spleen (tissue-derived)
T2 sequence (P56658 1-363): T1 sequence (P56658 1-363)
Put plainly: Fluorescence spectroscopy of ADA 3-D structure changes. On the set-up: species or system bovine. The note with it: excitation 290 nm, pH 7.5, 37°C; inhibitor 10 μM. The protocol:
Fluorescence study has been done with fluorescent spectroscopy (Hitachi MPF-4, Japan), which its cell length is 1cm. In this method, the exciting wavelength was adjusted in 290 nm and the emission was studied in range of 300–400 nm for possible enzyme 3-D structure changes. In this experiment, different concentrations of inhibitors (5–100 μM) were investigated in the presence of ADA (0.01unit) by final volume of 400 μL with phosphate buffer.
To investigate changes in enzyme 3-D structure at different concentration of inhibitors (10–100 μM), the fluorescence experiments were done in excitation wavelength of 290 nm, which is due to tryptophan amino acids in the active site of enzyme Figure 5.
Figure 5 The fluorescence spectra of adenosine deaminase at pH=7.5 and T=37°C in the presence of different concentrations of three inhibitors: 10–100 μM.

Assay [3] addresses adenosine deaminase. The note with it: cited from earlier work.

By IC50 is commonly meant the point on the concentration scale where inhibition reaches its midpoint. Turning to `Cn1c([N+](=O)[O-])cnc1-c1nnco1` [Compound 1], in assay [1], inhibition was half-maximal at 103 µM (IC50) and the Ki turned out to be 63 µM.

For the compound `Cn1c([N+](=O)[O-])cnc1C#N` [Compound 2], the inhibition mechanism entry in assay [1] (kinetic studies) is recorded as “competitive”. Moreover, in assay [1], the IC50 was 41 µM and the Ki stood at 20 µM. The “enzyme structural changes by fluorescence intensity” value at Adenosine deaminase [2] is given as “sever structural changes”.

For the compound “erythro-9-(2-hydroxy-3-nonyl) adenine [EHNA]”, the Ki at adenosine deaminase [3] was 0.037 µM.
